In the test the target is T1, recombinant mouse TRPC3c channels (Mus musculus, UniProt Q9QZC1, DEL811-838).
T1 construct: expressed in transfected cells; host or cells: HEK293 cells, stably transfected (pIRES-DsRed2 vector)
T1 sequence (Q9QZC1 with tags, fused parts or gaps DEL811-838): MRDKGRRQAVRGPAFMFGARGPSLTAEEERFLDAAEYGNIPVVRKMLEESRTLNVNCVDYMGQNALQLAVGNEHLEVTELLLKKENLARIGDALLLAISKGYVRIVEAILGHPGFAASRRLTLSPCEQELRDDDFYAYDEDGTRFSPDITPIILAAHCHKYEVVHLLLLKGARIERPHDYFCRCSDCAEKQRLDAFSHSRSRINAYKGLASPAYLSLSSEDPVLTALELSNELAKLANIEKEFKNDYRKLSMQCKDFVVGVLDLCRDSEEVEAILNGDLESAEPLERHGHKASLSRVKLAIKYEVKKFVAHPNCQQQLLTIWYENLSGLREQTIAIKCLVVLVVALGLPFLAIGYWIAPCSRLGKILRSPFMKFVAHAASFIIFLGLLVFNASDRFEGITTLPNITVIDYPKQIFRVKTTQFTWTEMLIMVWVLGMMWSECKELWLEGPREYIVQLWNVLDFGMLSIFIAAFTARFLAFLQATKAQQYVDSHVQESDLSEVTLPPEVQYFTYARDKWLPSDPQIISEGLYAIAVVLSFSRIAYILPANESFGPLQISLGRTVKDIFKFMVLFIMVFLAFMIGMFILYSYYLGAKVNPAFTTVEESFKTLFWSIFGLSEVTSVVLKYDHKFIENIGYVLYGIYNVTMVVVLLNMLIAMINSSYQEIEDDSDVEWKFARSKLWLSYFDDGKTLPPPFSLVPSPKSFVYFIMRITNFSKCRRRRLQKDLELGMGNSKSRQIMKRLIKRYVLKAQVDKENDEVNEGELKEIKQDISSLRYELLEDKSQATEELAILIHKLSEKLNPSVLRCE
Kind of test: Indo-1 ratiometric Ca2+ imaging of CCh-activated Ca2+ entry, HEK293 cells expressing TRPC3c. The following applies: genistein 200 μM pre-incubation, n=5, without genistein 575.6±44.2 nM. The class given is cell-based. Here is the method:
The TRPC3-mediated Ca^2+ entry through two distinct activation pathways was assessed by microfluorometric Ca^2+ imaging: i) Ca^2+ entry via the M3 receptor-PLCB-DAG pathway endogenous to HEK293 cells, using Indo-1 as a Ca^2+ indicator; and ii) Ca^2+ entry via mGluR1-PLCB-DAG through co-expression of the mGluR1, using Fluo-4 as a Ca^2+ indicator.
Cells were grown in DMEM media on 18 mm circular coverslips coated with poly-D-lysine (25 μg/ml) and collagen (25 μg/ml) at 1:1 ratio. The cells were washed with HPSS. The coverslips were then incubated with HPSS and 0.1% pluronic acid, along with either 1 μM Indo-1AM or Fluo-4AM Ca^2+ indicator (Invitrogen, U.S.A.) for an hour prior to the experiment. The cells were then placed into HPSS with 5 μM GdCl3 to block endogenous Ca^2+ entry (added to all superfusions). The M3 AChR-mediated TRPC3 activation was achieved by bath application of carbachol. The mGluR1-mediated TRPC3 activation was achieved by bath application of DHPG.
For Indo-1 experiments, the cells were mounted on a Nikon TMD inverted microscope fitted with an Indo-1 filter set (Nikon Indo-1 filter cube, 485 nm/DM455 nm/405 nm) and illuminated with a mercury lamp. Cells were excited at 350 nm, with dual emission of the field was detected at 410 nm and 480 nm using two photomultiplier tubes, and the ratioed emission was determined in real-time using in-house software. […]

Each structure is given as a SMILES string.

Turning to `O=c1c(-c2ccc(O)cc2)coc2cc(O)cc(O)c12` [genistein, 4′, 5,7-trihydroxyisoflavone], the “peak [Ca2+] on return of extracellular Ca2+ (CCh-activated Ca2+ entry)” value came to 81.9 ± 19.8 nM.

The values are drawn from US20170202932A1, “METHODS FOR INHIBITING NEURON APOPTOSIS AND NECROSIS” (NEWSOUTH INNOVATIONS PTY LIMITED, priority 2012, published 2017).
